Measured values taken from US9090593B2, “Bicyclic compounds as Pim inhibitors” (AMGEN INC., priority 2010, dated 2015).
Structures can show the parent of a compound that is named as a salt. Where two headings read alike, the source gives them in different places.

Columns and labels:
[1] = biological target: T1, full length recombinant Pim-2 protein (Homo sapiens, UniProt Q9P1W9); assay: Pim-2 enzyme assay (HTRF, phosphorylation of biotinylated-BAD (S112) peptide); type: biochemical; settings: read-out: Pim2_IC50
T1 construct: by full length recombinant Pim-1, Pim-2, or Pim-3 protein; hexahistidine tag followed by a thrombin cleavage site (N); made in house; host or cells: Sf9 (baculovirus) or E. coli (pET28)
Procedure, shortened: (§1)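 Inhibition is reported as IC50 from a 4-parameter logistic fit of percent-of-control HTRF signal, which tracks phospho-BAD (S112) formed by full-length human Pim-1 or Pim-2. Reactions ran in 60 mM Hepes, pH 7.0, 0.05% BSA, 2 mM DTT.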

[2] = biological target: T2, full length recombinant Pim-1 protein (Homo sapiens, UniProt P11309); assay: Pim-1 enzyme assay (HTRF, phosphorylation of biotinylated-BAD (S112) peptide); type: biochemical; settings: read-out: Pim_1_IC50
T2 construct: by full length recombinant Pim-1, Pim-2, or Pim-3 protein; hexahistidine tag followed by a thrombin cleavage site (N); made in house; host or cells: Sf9 (baculovirus) or E. coli (pET28)
Procedure, shortened: as §1

[3] = biological target: T3, Pim-2 stably transfected into the U2OS human osteogenic sarcoma line (Homo sapiens, UniProt Q9P1W9); assay: Pim cell assay, phospho-BAD normalized against total BAD, U2OS stably transfected with Pim-2; type: cell-based
T3 construct: expressed in transfected cells; host or cells: U2OS human osteogenic sarcoma line
Method: (§2) The cell lines used in the assay were generated by the stable transfection of either Pim-1 or Pim-2 into the U2OS human osteogenic sarcoma line. The assay for determination of the Pim activity in the engineered U2OS cell lines measures levels of phospho-BAD normalized against total BAD protein levels. It was conducted as follows:
(§3) The adherent cells were dissociated from the flasks using non-enzymatic cell dissociation solution (Sigma # C5914). […] The cells were then incubated overnight at 37° C., 5% CO2.
(§4) In addition to the 10-point dosing curve of the test compound, DMSO alone was run as the high control.
(§5) This dilution in DMSO was then diluted again into cell growth medium. Aliquots (12 uL) of the compound diluted in growth medium were then transferred to the appropriate wells of the 96-well plates containing cells to yield a final DMSO concentration of 0.3%.
(§6) The cell plates containing lysis buffer were then immediately stored at −70° C.
(§7) These prepared lysates were then assayed for phospho and total BAD according to the manufacturer's protocols (Meso Scale Diagnostics, Cat# K15103C-3 & # K15103D-3). The plates were read on the MSD Sector Imager 6000, and results were calculated according to the assay protocols ((% Phosphoprotein=((2×Phospho signal)/(Phospho signal+Total signal))×100)).

[4] = biological target: T4, Pim-1 stably transfected into the U2OS human osteogenic sarcoma line (Homo sapiens, UniProt P11309); assay: Pim cell assay, phospho-BAD normalized against total BAD, U2OS stably transfected with Pim-1; type: cell-based
T4 construct: expressed in transfected cells; host or cells: U2OS human osteogenic sarcoma line
Method: as §2, §3, §4, §5, §6, §7

[5] = U2OS cells stably transfected with Pim-2, phospho-BAD, high dose […], read-out: Pim2_Cell_IC50
[6] = U2OS cells stably transfected with Pim-1, phospho-BAD, high dose […], read-out: Pim1_Cell_IC50
[7] = U2OS stably transfected with Pim-2, phospho-BAD normalized against total BAD, 29 min incubation, read-out: Pim2_Cell_IC50_
[8] = U2OS stably transfected with Pim-1, phospho-BAD normalized against total BAD, 29 min incubation, read-out: Pim1_Cell_IC50_

T3 sequence (Q9P1W9 whole entry): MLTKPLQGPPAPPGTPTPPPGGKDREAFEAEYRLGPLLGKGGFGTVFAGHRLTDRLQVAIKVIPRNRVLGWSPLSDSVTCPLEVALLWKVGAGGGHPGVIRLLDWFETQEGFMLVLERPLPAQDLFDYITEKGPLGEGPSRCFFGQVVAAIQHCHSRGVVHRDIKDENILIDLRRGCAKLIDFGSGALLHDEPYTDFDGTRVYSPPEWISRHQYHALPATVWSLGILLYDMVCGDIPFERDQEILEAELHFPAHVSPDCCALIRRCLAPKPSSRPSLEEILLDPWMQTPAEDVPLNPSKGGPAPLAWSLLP
T1 sequence (Q9P1W9 whole entry): as above
T2 sequence (P11309 whole entry): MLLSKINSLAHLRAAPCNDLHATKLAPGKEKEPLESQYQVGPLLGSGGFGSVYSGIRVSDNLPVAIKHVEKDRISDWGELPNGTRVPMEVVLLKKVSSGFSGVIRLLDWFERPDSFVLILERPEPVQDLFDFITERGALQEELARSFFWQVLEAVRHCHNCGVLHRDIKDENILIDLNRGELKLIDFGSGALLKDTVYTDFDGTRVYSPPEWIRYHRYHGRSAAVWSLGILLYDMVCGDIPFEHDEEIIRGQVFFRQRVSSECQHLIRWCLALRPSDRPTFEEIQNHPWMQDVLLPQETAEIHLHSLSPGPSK
T4 sequence (P11309 whole entry): as above

Row | IC50 ([1]; enzyme assay, Pim-2) | IC50 ([2]; enzyme assay, Pim-1) | IC50 [3, 5] | IC50 [4, 6] | IC50 [1] | IC50 [2] | IC50 [3, 7] | IC50 [4, 8] | SMILES
1 | – | – | – | – | 108 nM | 5 nM | 31500 nM | 369 nM | c1cc(-c2ccc3[nH]nc(-c4cncc(O[C@@H]5CCCNC5)n4)c3c2)nc(NC2CC2)n1 [Example 242, N-cyclopropyl-4-(3-(6-((3R)-3-piperidinyloxy)-2-pyrazinyl)-1H-indazol-5-yl)-2-pyrimidinamine]
2 | – | – | – | – | 11 nM | 4 nM | 6530 nM | 313 nM | COc1cc(-c2ccc3[nH]cc(-c4cncc(O[C@@H]5CCCNC5)n4)c3c2)c(F)cn1 [Example 290]
3 | – | – | – | – | 32 nM | 6 nM | 11800 nM | 154 nM | c1cc2[nH]cc(-c3cncc(O[C@@H]4CCCNC4)n3)c2cc1-c1cnn(C2CC2)c1 [Example 291, 5-(1-cyclopropyl-1H-pyrazol-4-yl)-3-(6-((3R)-3-piperidinyloxy)-2-pyrazinyl)-1H-indole]
4 | – | – | – | – | 19 nM | 4 nM | ≥ 35200 nM | 649 nM | COc1ccc(-c2ccc3[nH]cc(-c4cncc(O[C@@H]5CCCNC5)n4)c3c2)cc1F [Example 292]

Continued, compound first:

Row | SMILES | IC50 ([1]; enzyme assay, Pim-2) | IC50 ([2]; enzyme assay, Pim-1) | IC50 [3, 5] | IC50 [4, 6] | IC50 [1] | IC50 [2] | IC50 [3, 7] | IC50 [4, 8]
5 | Nc1cncc(-c2ccc3[nH]nc(-c4cncc(N5CCC(N)CC5)n4)c3c2)c1 [Example 73, 5-(3-(6-(4-amino-1-piperidinyl)-2-pyrazinyl)-1H-indazol-5-yl)-3-pyridinamine] | 3 nM | 1 nM | > 31600 nM | 885 nM | – | – | – | –
6 | COc1cncc(-c2ccc3[nH]nc(-c4cncc(N5CCC(N)CC5)n4)c3c2)c1 [Example 79, 1-(6-(5-(5-methoxy-3-pyridinyl)-1H-indazol-3-yl)-2-pyrazinyl)-4-piperidinamine] | 9 nM | 1 nM | 3890 nM | 182 nM | – | – | – | –
7 | NC1CCN(c2cncc(-c3n[nH]c4ccc(-c5cccnc5)cc34)n2)CC1 [Example 82, 1-(6-(5-(3-pyridinyl)-1H-indazol-3-yl)-2-pyrazinyl)-4-piperidinamine] | 7 nM | 1 nM | 7810 nM | 171 nM | – | – | – | –
8 | c1cc2[nH]nc(-c3cncc(C4CC4)n3)c2cc1-c1cncc(C2CC2)n1 [Example 244, 3,5-bis(6-cyclopropyl-2-pyrazinyl)-1H-indazole] | – | – | – | – | 3 nM | 1 nM | > 10000 nM | 169 nM
9 | c1cc2[nH]cc(-c3cncc(C4CC4)n3)c2cc1-c1cncc(C2CC2)n1 [Example 245, 3,5-bis(6-cyclopropyl-2-pyrazinyl)-1H-indole] | – | – | – | – | 345 nM | 28 nM | > 31600 nM | 3640 nM
10 | C1=C(c2ccc3[nH]nc(-c4cncc(O[C@H]5CNCCC56CC6)n4)c3c2)CCOC1 [Example 263, 3-(6-((4R)-6-azaspiro[25]oct-4-yloxy)-2-pyrazinyl)-5-(3,6-dihydro-2H-pyran-4-yl)-1H-indazole 2,2,2-trifluoroacetate salt] | – | – | – | – | 8 nM | 4 nM | 5760 nM | 180 nM
11 | c1cc2[nH]nc(-c3cncc(O[C@H]4CNCCC45CC5)n3)c2cc1C1CCOCC1 [Example 264, 3-(6-((4R)-6-azaspiro[25]oct-4-yloxy)-2-pyrazinyl)-5-(tetrahydro-2H-pyran-4-yl)-1H-indazole-2,2,2-trifluoroacetate] | – | – | – | – | 15 nM | 6 nM | > 10000 nM | 276 nM
12 | NC1CCN(c2nc(-c3c[nH]c4ccc(-c5c(F)cccc5F)cc34)cc(=O)[nH]2)CC1 [Example 277, 2-(4-aminopiperidin-1-yl)-6-(5-(2,6-difluorophenyl)-1H-indol-3-yl)pyrimidin-4(3H)-one] | – | – | – | – | 2 nM | 1 nM | > 31600 nM | 2470 nM
13 | CC(C)Nc1nc(-c2c[nH]c3ccc(-c4cncc(C5CC5)n4)cc23)cc(=O)[nH]1 [Example 287, 6-(5-(6-cyclopropylpyrazin-2-yl)-1H-indol-3-yl)-2-(isopropylamino) pyrimidin-4(3H)-one] | – | – | – | – | 87 nM | 6 nM | > 31600 nM | 1310 nM
